# Data published in US20230045616A1, “CANCER TREATMENT METHOD AND MEDICINE” (Nonprofit Organization North East Japan Study Group, priority 2019, published 2023).
# Entries after “also recorded” stand apart in the source; their conditions may differ.
# System: lung cancer
# Experiment: CT / X-ray images of cancer tissue in treated lung cancer patients (case reports)
# Format: in vivo, human
substance,measurement,setting,value
nivolumab,cancer tissue in CT images after the treatment,"Example 3 patient, nivolumab after administration of Extract Z, FIG. 5",almost eliminated
same,primary foci and lymph node metastasis,"Example 23 patient, nivolumab alone 240 mg every 2 weeks from September, 2017, progression observed on Nov. 6, 2020",primary foci were almost eliminated and metastasis to the lymph nodes was eliminated
same,swelling in the cervical lymph node (CT images),"nivolumab 240 mg every 2 weeks continued after radiation of 30 Gy/10 fr to the cervical lymph node, stage IVb lung cancer patient","suppressed (April and October, 2019) and partially remitted; also recorded: suppressed (May, 2019) and partially remitted"
same,swelling in the cervical lymph node to which cancer had been metastasized (CT images),"nivolumab alone, 240 mg per dose i.v. drip at an interval of 2 weeks, stage IVb lung cancer patient without driver gene mutation",progressed
